Assay results published in patent publication US20250288567A1, “PHARMACEUTICAL COMPOSITION FOR TREATING PRESBYOPIA” (Sight Health Hong Kong Biotechnology Co., Limited, priority 2024, published 2025).
“And” between values parts separate entries of the source, which are not always exact repeats. Identical values can stand only once.

Columns and labels:
presbyopia patients [1] = test: Side effects reported by patients after Huperzine A eye drops; conditions: human, in vivo
Method: (§1) A non-randomized clinical case study involving 40 eyes of 20 presbyopia patients with uncorrected distance visual acuity (UDVA) of 0.4-1.0 and uncorrected near visual acuity (UNVA) of less than Jaeger1, aged 33-70 years is conducted. The patients are randomly divided into 3 groups, using eye drops with concentration of Huperzine A ranging from 0.1%-0.3% for clinical trials. Data are collected on changes in visual acuity, including UDVA, UNVA40, UNVA66, pupil diameter changes, and non-contact intraocular pressure, before and 30 minutes after Huperzine A eye drops. The data are grouped according to drug concentration and age and are analyzed. The discomfort symptoms appeared half an hour after using the eye drops are recorded, and the time when the relevant symptoms disappeared is obtained during the telephone interview in the following 3 days. A detailed description of the case study is further illustrated below.
The duration of these side effects varies from 2 to 5 hours and gradually relieves over time. Additionally, some patients report an increase in tear secretion after using the eye drops.

[2] = system: patients with astigmatism (UDVA less than 0.8); test: Uncorrected distance visual acuity (UDVA) of eyes with astigmatism after Huperzine A eye drops; type: in vivo, human; conditions: 2 patients, 4 eyes with astigmatism
Method: as §1
Participants first complete a health declaration questionnaire with assistance from medical staff. They then measure their blood pressure and heart rate before undergoing computer optometry, as well as examinations for best corrected distance visual acuity and uncorrected distance visual acuity. They use the Jaeger score table to assess uncorrected reading visual acuity at 40 cm (UNVA40) and 66 cm (UNVA66) for computer visual acuity. […]

presbyopia patients [3] = test: Non-randomized clinical case study of Huperzine A eye drops: uncorrected near visual acuity (UNVA40, UNVA66) before and 30 minutes after; type: in vivo, human
Method: as §1
The clinical study of the present invention is conducted in March 2022 at a university hospital. Individuals over the age of 30 who feel their near vision has decreased are recruited and voluntarily participate in the test through a long-term open recruitment process. Inclusion criteria include best corrected distance visual acuity of 1.0, 40 cm reading visual acuity (UNVA40) or 66 cm computer visual acuity (UNVA66) lower than the Jaeger score J1, normal intraocular pressure, no history of retinal-related medical conditions, good general health, absence of systemic symptoms, and no rheumatic or systemic immune diseases.
Participants first complete a health declaration questionnaire with assistance from medical staff. They then measure their blood pressure and heart rate before undergoing computer optometry, as well as examinations for best corrected distance visual acuity and uncorrected distance visual acuity. They use the Jaeger score table to assess uncorrected reading visual acuity at 40 cm (UNVA40) and 66 cm (UNVA66) for computer visual acuity. Additionally, they have non-contact intraocular pressure measurements, pupil diameter assessments under room lighting, and a slit lamp examination by an experienced clinical ophthalmologist to rule out ocular diseases. Fundus photography is also performed.
Participants who meet the screening criteria are randomly divided into […]. One drop of 0.1%-0.3% Huperzine A eye drops is administered in each eye. After 30 minutes, the best corrected distance visual acuity, uncorrected distance visual acuity at 40 cm (UNVA40), and 66 cm computer visual acuity (UNVA66) are measured again, along with non-contact intraocular pressure and pupil diameter under room lighting.
The drug used in this present test is Huperzine A at a range of 0.1%-0.3% concentration, using standard ophthalmic dropper bottles, each yielding 40 μL drops and each drop effectively dispenses 0.1%-0.3%.
The collected data are organized so that J1+ is recorded as 0 on the Jaeger scale, J1 as 1, J2 as 2, and so forth.
The patients are grouped by age: 40 years old or below (2 people, 4 eyes), 41-50 years old (9 people, 18 eyes), 51-60 years old (6 people, 12 eyes), 61-70 years old (2 people, 4 eyes), and over 70 years old (1 people, 2 eyes).

presbyopia patients [4] = test: Visual acuity before and after treatment with Huperzine A, TRAC1 and their combination (three patients); type: in vivo, human; parameters: scale not given here
Method: This hypothesis is tested by using 0.05%-0.3% Huperzine A and 0.05%-0.3% TRAC1. Three patients are treated with each drug, as well as the combination of both drugs.

[5] = Group 1, 40 years old or below, 2 people 4 eyes
[6] = Group 2, 41-50 years old, 9 people 18 eyes
[7] = Group 3, 51-60 years old, 6 people 12 eyes
[8] = Group 4, 61-70 years old, 2 people 4 eyes
[9] = Group 5, over 70 years old, 1 person 2 eyes
[10] = all patients, 20 patients 40 eyes, 0.1%-0.3% eye drops, 30 minutes after
[11] = Patient 1, Right eye (OD), Jaeger score, 0.05%-0.3%

SMILES: C/C=C1\[C@H]2C=C(C)C[C@]1(N)c1ccc(=O)[nH]c1C2 [Huperzine A]
- lacrimation (side effect) (presbyopia patients [1]): 6%
- UDVA increase after Huperzine A eye drops [2]: 0.2 and 0.1
- N40 improved (presbyopia patients [3]; [5]): 2.25 J
- N66 improved (presbyopia patients [3]; [5]): 1.50 J
- UNVA40 after treatment (Near 40, After) (presbyopia patients [3]; [5]): 1.00 J
- UNVA66 after treatment (Near 66, After) (presbyopia patients [3]; [5]): 2.75 J
- N40 improved (presbyopia patients [3]; [6]): 3.05 J and 3.06 J
- N66 improved (presbyopia patients [3]; [6]): 1.72 J
- UNVA40 after treatment (Near 40, After) (presbyopia patients [3]; [6]): 1.89 J
- UNVA66 after treatment (Near 66, After) (presbyopia patients [3]; [6]): 1.61 J
- N40 improved (presbyopia patients [3]; [7]): 1.92 J
- N66 improved (presbyopia patients [3]; [7]): 2.33 J
- UNVA40 after treatment (Near 40, After) (presbyopia patients [3]; [7]): 3.75 J
- UNVA66 after treatment (Near 66, After) (presbyopia patients [3]; [7]): 3.67 J
- N40 improved (presbyopia patients [3]; [8]): 3.75 J
- N66 improved (presbyopia patients [3]; [8]): 2.00 J
- UNVA40 after treatment (Near 40, After) (presbyopia patients [3]; [8]): 2.25 J
- UNVA66 after treatment (Near 66, After) (presbyopia patients [3]; [8]): 3.00 J
- N40 improved (presbyopia patients [3]; [9]): 6.00 J
- N66 improved (presbyopia patients [3]; [9]): 4.50 J
- UNVA40 after treatment (Near 40, After) (presbyopia patients [3]; [9]): 7.00 J
- UNVA66 after treatment (Near 66, After) (presbyopia patients [3]; [9]): 4.00 J
- N40 improved (average improvement of UNVA40) (presbyopia patients [3]; [10]): 2.85 J
- N66 improved (average improvement of UNVA66) (presbyopia patients [3]; [10]): 2.05 J
- UNVA66 after treatment (Near 66, After) (presbyopia patients [3]; all patients, 20 patients 40 eyes, 0.1%-0.3% eye drops, 30 minutes after, Jaeger score): 2.60 J
- UNVA40 after treatment (Near 40, After) (presbyopia patients [3]; all patients, 20 patients 40 eyes, 0.1%-0.3% eye drops, 30 minutes after, Jaeger score, J1+ = 0): 2.65 J
- effect on near vision, 41-50-year-old group compared with 51-60-year-old group (presbyopia patients [3]; human, in vivo): more significant effect on the former group
- Near 40 cm, After treatment (presbyopia patients [4]; Patient 1, Left eye (OS)): 3
- Near 40 cm, Improvement (presbyopia patients [4]; Patient 1, Left eye (OS)): 2
- Near 66 cm, After treatment (presbyopia patients [4]; Patient 1, Left eye (OS)): 2
- Near 66 cm, Improvement (presbyopia patients [4]; Patient 1, Left eye (OS)): 2
- Near 40 cm, Improvement (presbyopia patients [4]; Patient 1, Right eye (OD)): 3
- Near 66 cm, After treatment (presbyopia patients [4]; Patient 1, Right eye (OD)): 2
- Near 66 cm, Improvement (presbyopia patients [4]; Patient 1, Right eye (OD)): 2
- Near 40 cm, After treatment (presbyopia patients [4]; [11]): 3
- Near 40 cm, After treatment (presbyopia patients [4]; Patient 2, Left eye (OS)): 4
- Near 40 cm, Improvement (presbyopia patients [4]; Patient 2, Left eye (OS)): 5
- Near 66 cm, After treatment (presbyopia patients [4]; Patient 2, Left eye (OS)): 2
- Near 66 cm, Improvement (presbyopia patients [4]; Patient 2, Left eye (OS)): 4
- Near 40 cm, After treatment (presbyopia patients [4]; Patient 2, Right eye (OD)): 4
- Near 40 cm, Improvement (presbyopia patients [4]; Patient 2, Right eye (OD)): 6
- Near 66 cm, After treatment (presbyopia patients [4]; Patient 2, Right eye (OD)): 3
- Near 66 cm, Improvement (presbyopia patients [4]; Patient 2, Right eye (OD)): 3
- Near 40 cm, After treatment (presbyopia patients [4]; Patient 3, Left eye (OS)): 3
- Near 40 cm, Improvement (presbyopia patients [4]; Patient 3, Left eye (OS)): 8
- Near 66 cm, After treatment (presbyopia patients [4]; Patient 3, Left eye (OS)): 3
- Near 66 cm, Improvement (presbyopia patients [4]; Patient 3, Left eye (OS)): 6
- Near 40 cm, After treatment (presbyopia patients [4]; Patient 3, Right eye (OD)): 2
- Near 40 cm, Improvement (presbyopia patients [4]; Patient 3, Right eye (OD)): 6
- Near 66 cm, After treatment (presbyopia patients [4]; Patient 3, Right eye (OD)): 2
- Near 66 cm, Improvement (presbyopia patients [4]; Patient 3, Right eye (OD)): 5

SMILES: Nc1c2c(nc3ccccc13)CCCC2 [Tacrine]
- Near 40 cm, After treatment (presbyopia patients [4]; Patient 1, Left eye (OS)): 3
- Near 40 cm, Improvement (presbyopia patients [4]; Patient 1, Left eye (OS)): 2
- Near 66 cm, After treatment (presbyopia patients [4]; Patient 1, Left eye (OS)): 2
- Near 66 cm, Improvement (presbyopia patients [4]; Patient 1, Left eye (OS)): 2
- Near 40 cm, Improvement (presbyopia patients [4]; Patient 1, Right eye (OD)): 3
- Near 66 cm, After treatment (presbyopia patients [4]; Patient 1, Right eye (OD)): 2
- Near 66 cm, Improvement (presbyopia patients [4]; Patient 1, Right eye (OD)): 2
- Near 40 cm, After treatment (presbyopia patients [4]; [11]): 3
- Near 40 cm, After treatment (presbyopia patients [4]; Patient 2, Left eye (OS)): 4
- Near 40 cm, Improvement (presbyopia patients [4]; Patient 2, Left eye (OS)): 5
- Near 66 cm, After treatment (presbyopia patients [4]; Patient 2, Left eye (OS)): 2
- Near 66 cm, Improvement (presbyopia patients [4]; Patient 2, Left eye (OS)): 4
- Near 40 cm, After treatment (presbyopia patients [4]; Patient 2, Right eye (OD)): 4
- Near 40 cm, Improvement (presbyopia patients [4]; Patient 2, Right eye (OD)): 6
- Near 66 cm, After treatment (presbyopia patients [4]; Patient 2, Right eye (OD)): 3
- Near 66 cm, Improvement (presbyopia patients [4]; Patient 2, Right eye (OD)): 3
- Near 40 cm, After treatment (presbyopia patients [4]; Patient 3, Left eye (OS)): 3
- Near 40 cm, Improvement (presbyopia patients [4]; Patient 3, Left eye (OS)): 8
- Near 66 cm, After treatment (presbyopia patients [4]; Patient 3, Left eye (OS)): 3
- Near 66 cm, Improvement (presbyopia patients [4]; Patient 3, Left eye (OS)): 6
- Near 40 cm, After treatment (presbyopia patients [4]; Patient 3, Right eye (OD)): 2
- Near 40 cm, Improvement (presbyopia patients [4]; Patient 3, Right eye (OD)): 6
- Near 66 cm, After treatment (presbyopia patients [4]; Patient 3, Right eye (OD)): 2
- Near 66 cm, Improvement (presbyopia patients [4]; Patient 3, Right eye (OD)): 5
